# Molecular target: T1, RORC2 ligand binding domain (6-His-RORC2 LBD) (Homo sapiens, UniProt P51449)
# T1 construct: made in house; host or cells: E. coli
# T1 sequence (P51449 269-508 limits assumed): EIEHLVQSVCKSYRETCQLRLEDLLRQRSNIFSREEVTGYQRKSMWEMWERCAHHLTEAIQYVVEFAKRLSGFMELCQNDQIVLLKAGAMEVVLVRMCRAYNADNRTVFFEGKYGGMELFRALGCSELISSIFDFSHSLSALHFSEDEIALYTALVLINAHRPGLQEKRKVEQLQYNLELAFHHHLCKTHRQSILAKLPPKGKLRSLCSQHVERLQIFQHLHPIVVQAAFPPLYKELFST
# Experiment: Co-activator recruitment by TR-FRET (RORC2 FRET)
# Format: biochemical
# Conditions: 6.3 nM RORC2 LBD, 200 nM SRC1-2 coactivator peptide, 3 hours room temperature
row,SMILES,IC50 [nM]
1,"Cc1c(NC(=O)c2cccc(C#N)c2)ccc2c1c(C1CCN(C(=O)C[C@@H](O)C(F)(F)F)CC1)cn2C [Example 89, (R)-3-cyano-N-(1,4-dimethyl-3-(1-(4,4,4-trifluoro-3-hydroxybutanoyl)-piperidin-4-yl)-1H-indol-5-yl)benzamide]",14.2
2,"Cn1cc(C2CCN(C(=O)C[C@@H](O)C(F)(F)F)CC2)c2cc(NC(=O)c3cccc(C#N)c3)ccc21 [Example 90, (R)-3-cyano-N-(1-methyl-3-(1-(4,4,4-trifluoro-3-hydroxybutanoyl)piperidin-4-yl)-1H-indol-5-yl)benzamide]",13.9
3,"CC(C)C(=O)N1CCC(c2cn(C)c3ccc(NS(=O)(=O)c4ccc(F)cc4)cc23)CC1 [Example 92, 4-fluoro-N-(3-(1-isobutyrylpiperidin-4-yl)-1-methyl-1H-indol-5-yl)benzenesulfonamide]",10.5
4,"Cc1c(NC(=O)c2cccc(C#N)c2)cnc2c1c(C1CCN(C(=O)C[C@@H](O)C(F)(F)F)CC1)cn2C [Example 95, (R)-3-Cyano-N-(1,4-dimethyl-3-(1-(4,4,4-trifluoro-3-hydroxybutanoyl)piperidin-4-yl)-1H-pyrrolo[2,3-b]pyridin-5-yl)benzamide]",46.8

# The next molecules have a lower IC50 than those just listed; values first:
row,IC50 [nM],SMILES
1,9.8,"Cn1cc(C2CCN(C(=O)C[C@@H](O)C(F)(F)F)CC2)c2cc(NS(=O)(=O)c3ccc(F)cc3)ccc21 [Example 91, (R)-4-fluoro-N-(1-methyl-3-(1-(4,4,4-trifluoro-3-hydroxybutanoyl)piperidin-4-yl)-1H-indol-5-yl)benzenesulfonamide]"
2,4.9,"CC1CCN(S(=O)(=O)Nc2ccc3c(c2)c(C2CCN(C(=O)C4CCCC4)CC2)cn3C)CC1 [Example 93, N-(3-(1-(cyclopentanecarbonyl)piperidin-4-yl)-1-methyl-1H-indol-5-yl)-4-methylpiperidine-1-sulfonamide]"
